One may read the EC50 as the concentration at which the effect is half-maximal. Read a low EC50 as greater potency.

Numbered stars: 1 amine (or outer) side, 2 acyl side, 3 side chain; on linkers, the order of the positions; unused ones are H or OH. Bridge positions count the residues as written; N and C are the ends. Square brackets hold non-standard residues; d marks the D form. Peptide text beside a SMILES is read from it. * marks the point of attachment. Diglycolyl = O=C(COCC(=O)[*:2])[*:1]; X3 = O=C(/C=C/c1ccc(Cl)cc1)*; Decanoyl = CCCCCCCCCC(=O)*; Isobutyryl = CC(C)C(=O)*; Octanoyl = CCCCCCCC(=O)*; Orn = NCCC[C@H](N)C(=O)O; Dab = NCC[C@H](N)C(=O)O; Dap = NC[C@H](N)C(=O)O; Hexanoyl = CCCCCC(=O)*; Bz = O=C(c1ccccc1)*; Ava = NCCCCC(=O)O

For this test, the system named is MCP-1. Briefly: In vitro chemotaxis (trans-well migration) v MCP-1. It is filed as cell-based, human. How it is done: To determine whether an agent inhibits a chemokine-induced activity, such as macrophage recruitment, varying amounts of the agent are mixed with cells in the presence of a known chemoattractant. For example, a range of known concentrations of an agent, e.g., a chemokine peptide, is incubated with a defined number (e.g., 10^4-10^6) of human THP-1 monocyte cells in individual wells of the top compartment of a trans-well plate. Chemokine, at a concentration known to cause significant migration of THP-1 cells in the trans-well migration assay, is placed in the lower compartment of a trans-well plate. Cells are then incubated at 37° C. for a period sufficient to allow migration, e.g., 4 hours. After incubation, the cells are gently removed from the top of the filter with a pipette, 20 μl of 20 mM EDTA in simple PBS is added into each top well, and incubated for 20 minutes at 4° C. The filter is carefully flushed with media using a gentle flow, and removed. A standard curve consisting of a two-fold dilution series of THP-1 cells (in 29 μl) is placed to accurately quantify the number of cells that have migrated. Migrated cells are stained with 3 μl of MTT stock dye solution which is added directly into each well (5 mg/ml in RPMI-1640 without phenol red) (Sigma Chemical Co., St. Louis, Mo., USA) and incubated at 37° C. for 4 hours. The media is carefully aspirated from each well, and the converted dye is solubilized by 20 μl of DMSO. Absorbance of converted dye is measured at a wavelength of 595 nm using an ELISA plate reader. The number of migrated cells in each well is then determined by interpolation of the standard curve (see also Imai et al., J. Biol. Chem., 272:15036, 1997). Any method suitable for counting cells can be used, for example, counting with a hemocytometer, incubation of the cells with MTT (see above), or FACS analysis. A negative control assay is also performed, using TGFβ or another non-chemokine chemoattractant (e.g., IL1β or TNFα). To assess whether the agent is cytotoxic, the same concentrations of agent are incubated with THP-1 cells. Agents which 1) are not cytotoxic at levels which inhibit migration, 2) are ineffective at inhibiting the negative control-induced migration, and 3) reduce or inhibit chemokine-induced THP-1 migration, are agents which fall within the scope of the invention.
As to `CCCCCCCC(=O)N[C@H]1CSSC[C@@H](C(N)=O)NC(=O)[C@H](CCC(N)=O)NC(=O)[C@H]([C@@H](C)CC)NC(=O)[C@H](Cc2c[nH]c3ccccc23)NC(=O)[C@H](CCCCN)NC1=O` [Example 82, Octanoyl-c(Cys-Lys-Trp-Ile-Gln-Cys)-NH2] (Octanoyl-CKWIQC-NH2; disulfide 1-6), the 50% effective concentration (EC50) stood at 25 nM. With `CC[C@H](C)[C@@H]1NC(=O)[C@H](Cc2c[nH]c3ccccc23)NC(=O)[C@H](CCCCN)NC(=O)[C@@H](NC(C)=O)CCCNC(=O)C[C@@H](C(N)=O)NC(=O)[C@H](CCC(N)=O)NC1=O` [Example 119, Ac-c(Orn-Lys-Trp-Ile-Gln-Asp)-NH2] (Ac-[Orn]KWIQD-NH2; lactam 1-6), the EC50 stood at 8 nM. For `CC[C@@H](C)[C@H]1NC(=O)[C@@H](CCC(N)=O)NC(=O)[C@H](NC(C)=O)CSSC[C@H](C(N)=O)NC(=O)[C@@H](CCCCN)NC(=O)[C@@H](Cc2c[nH]c3ccccc23)NC1=O` [Example 190, Ac-c(D-Cys-D-Gln-D-Ile-D-Trp-D-Lys-D-Cys)-NH2] (Ac-[dC][dQ][dI][dW][dK][dC]-NH2; disulfide 1-6), the EC50 is 30 nM.

Take `CC[C@H](C)[C@@H]1NC(=O)[C@H](Cc2c[nH]c3ccccc23)NC(=O)[C@H](CCCCN)NC(=O)[C@@H](NC(C)=O)CCNC(=O)CC[C@@H](C(N)=O)NC(=O)[C@H](CCC(N)=O)NC1=O` [Example 122, Ac-c(Dab-Lys-Trp-Ile-Gln-Glu)-NH2] (Ac-[Dab]KWIQE-NH2; lactam 1-6): the 50% effective concentration (EC50) came out at 10 nM. As for `CC[C@H](C)[C@@H]1NC(=O)[C@@H](NC(=O)[C@@H](N)Cc2c[nH]c3ccccc23)CSSC[C@@H](C(N)=O)NC(=O)[C@H](CCC(N)=O)NC1=O` [Example 85, Trp-c(Cys-Ile-Gln-Cys)-NH2] (H-WCIQC-NH2; disulfide 2-5), it took 50 nM to reach a half-maximal effect (EC50).

As for `CC[C@H](C)[C@@H]1NC(=O)[C@H](Cc2c[nH]c3ccccc23)NC(=O)[C@H](CCCCN)NC(=O)COCC(=O)NC[C@@H](C(N)=O)NC(=O)[C@H](CCC(N)=O)NC1=O` [Example 130, c(Diglycolyl-Lys-Trp-Ile-Gln-Dap)-NH2] (KWIQ[Dap]-NH2; linker N-5 via Diglycolyl), the EC50 stood at 50 nM. Compound `CC[C@H](C)[C@@H]1NC(=O)[C@H](Cc2c[nH]c3ccccc23)NC(=O)[C@H](CCCCN)NC(=O)COCC(=O)NCCC[C@@H](C(N)=O)NC(=O)[C@H](CCC(N)=O)NC1=O` [Example 132, c(Diglycolyl-Lys-Trp-Ile-Gln-Orn)-NH2] (KWIQ[Orn]-NH2; linker N-5 via Diglycolyl) returned an EC50 of 200 nM. The figure for `CC[C@H](C)[C@@H]1NC(=O)[C@H](Cc2c[nH]c3ccccc23)NC(=O)[C@H](CCCCN)NC(=O)[C@@H](NC(=O)C(C)C)CCNC(=O)CC[C@@H](C(N)=O)NC(=O)[C@H](CCC(N)=O)NC1=O` [Example 107, Isobutyryl-c(Dab-Lys-Trp-Ile-Gln-Glu)-NH2] (Isobutyryl-[Dab]KWIQE-NH2; lactam 1-6) is 8 nM. Next, `CC[C@H](C)[C@@H]1NC(=O)[C@H](Cc2c[nH]c3ccccc23)NC(=O)[C@H](CCCCN)NC(=O)[C@@H](NC(C)=O)CC(=O)NCCCC[C@@H](C(N)=O)NC(=O)[C@H](CCC(N)=O)NC1=O` [Example 64, Ac-c(Asp-Lys-Trp-Ile-Gln-Lys)-NH2] (Ac-DKWIQK-NH2; lactam 1-6): 20 nM; `CC[C@@H](C)[C@H]1NC(=O)[C@@H](CCC(N)=O)NC(=O)[C@H](NC(C)=O)CSSC[C@H](C(N)=O)NC(=O)[C@@H](CC(C)C)NC(=O)[C@@H](CC(=O)O)NC(=O)[C@H]2CCCN2C(=O)[C@@H](CCCCN)NC(=O)[C@@H](CCC(N)=O)NC(=O)[C@@H](CCCCN)NC(=O)[C@@H](Cc2c[nH]c3ccccc23)NC1=O` [Example 198, Ac-c(D-Cys-D-Gln-D-Ile-D-Trp-D-Lys-D-Gln-D-Lys-D-Pro-D-Asp-D-Leu-D-Cys)-NH2] (Ac-[dC][dQ][dI][dW][dK][dQ][dK][dP][dD][dL][dC]-NH2; disulfide 1-11): 20 nM. Take `CC[C@H](C)[C@@H]1NC(=O)[C@H](Cc2c[nH]c3ccccc23)NC(=O)[C@H](CCCCN)NC(=O)[C@@H](NC(=O)/C=C/c2ccc(Cl)cc2)CSSC[C@@H](C(N)=O)NC(=O)[C@H](CCC(N)=O)NC1=O` [Example 73, 4-Chlorocinnamoyl-c(Cys-Lys-Trp-Ile-Gln-Cys)-NH2] (X3-CKWIQC-NH2; disulfide 1-6): the response was half-maximal at 10 nM (EC50).

For `CC[C@H](C)[C@@H]1NC(=O)[C@H](Cc2c[nH]c3ccccc23)NC(=O)[C@H](CCCCN)NC(=O)[C@@H](NC(C)=O)CCC(=O)NCCCC[C@@H](C(N)=O)NC(=O)[C@H](CCC(N)=O)NC1=O` [Example 116, Ac-c(Glu-Lys-Trp-Ile-Gln-Lys)-NH2] (Ac-EKWIQK-NH2; lactam 1-6), the EC50 was determined as 8 nM. The figure for `CCCCCCCCCC(=O)N[C@H]1CSSC[C@@H](C(N)=O)NC(=O)[C@H](CCC(N)=O)NC(=O)[C@H]([C@@H](C)CC)NC(=O)[C@H](Cc2c[nH]c3ccccc23)NC(=O)[C@H](CCCCN)NC1=O` [Example 83, Decanoyl-c(Cys-Lys-Trp-Ile-Gln-Cys)-NH2] (Decanoyl-CKWIQC-NH2; disulfide 1-6) is 20 nM; for `CC[C@H](C)[C@@H]1NC(=O)[C@H](Cc2c[nH]c3ccccc23)NC(=O)[C@H](CCCCN)NC(=O)[C@@H](NC(C)=O)CCC(=O)NC[C@@H](C(N)=O)NC(=O)[C@H](CCC(N)=O)NC1=O` [Example 113, Ac-c(Glu-Lys-Trp-Ile-Gln-Dap)-NH2] (Ac-EKWIQ[Dap]-NH2; lactam 1-6) it is 30 nM; for `CC[C@H](C)[C@@H]1NC(=O)[C@H](Cc2c[nH]c3ccccc23)NC(=O)[C@H](CCCCN)NC(=O)[C@@H](NC(C)=O)CCC(=O)NCC[C@@H](C(N)=O)NC(=O)[C@H](CCC(N)=O)NC1=O` [Example 114, Ac-c(Glu-Lys-Trp-Ile-Gln-Dab)-NH2] (Ac-EKWIQ[Dab]-NH2; lactam 1-6) it is 8 nM. `CCCCCC(=O)N[C@H]1CSSC[C@@H](C(N)=O)NC(=O)[C@H](CCC(N)=O)NC(=O)[C@H]([C@@H](C)CC)NC(=O)[C@H](Cc2c[nH]c3ccccc23)NC(=O)[C@H](CCCCN)NC1=O` [Example 81, n-Hexanoyl-c(Cys-Lys-Trp-Ile-Gln-Cys)-NH2] (Hexanoyl-CKWIQC-NH2; disulfide 1-6): the EC50 came out at 5 nM. The figure for `CC[C@H](C)[C@@H]1NC(=O)[C@H](Cc2c[nH]c3ccccc23)NC(=O)[C@H](CCCCN)NC(=O)[C@@H](NC(C)=O)CSSC[C@H](C(N)=O)NC(=O)[C@H](CCC(N)=O)NC1=O` [Example 74, Ac-c(Cys-Lys-Trp-Ile-Gln-D-Cys)-NH2] (Ac-CKWIQ[dC]-NH2; disulfide 1-6) is 7 nM; for `CC[C@H](C)[C@@H]1NC(=O)[C@H](Cc2c[nH]c3ccccc23)NC(=O)[C@H](CCCCN)NC(=O)[C@@H](NC(=O)C(C)C)CNC(=O)CC[C@@H](C(N)=O)NC(=O)[C@H](CCC(N)=O)NC1=O` [Example 7, Isobutyryl-c(Dap-Lys-Trp-Ile-Gln-Glu)-NH2] (Isobutyryl-[Dap]KWIQE-NH2; lactam 1-6) it is 5 nM.

`CC[C@H](C)[C@@H]1NC(=O)[C@H](Cc2c[nH]c3ccccc23)NC(=O)[C@H](CCCCN)NC(=O)[C@@H](NC(C)=O)CCCNC(=O)CC[C@@H](C(N)=O)NC(=O)[C@H](CCC(N)=O)NC1=O` [Example 123, Ac-c(Orn-Lys-Trp-Ile-Gln-Glu)-NH2] (Ac-[Orn]KWIQE-NH2; lactam 1-6) yielded an EC50 of 7 nM. As to `CC[C@H](C)[C@@H]1NC(=O)[C@H](Cc2c[nH]c3ccccc23)NC(=O)[C@H](CCCCN)NC(=O)[C@@H](NC(=O)c2ccccc2)CSSC[C@@H](C(N)=O)NC(=O)[C@H](CCC(N)=O)NC1=O` [Example 57, Benzoyl-c(Cys-Lys-Trp-Ile-Gln-Cys)-NH2] (Bz-CKWIQC-NH2; disulfide 1-6), it took 15 nM to reach a half-maximal effect (EC50). `CC[C@H](C)[C@@H]1NC(=O)[C@H](Cc2c[nH]c3ccccc23)NC(=O)[C@H](CCCCN)NC(=O)[C@H](NC(C)=O)CSSC[C@@H](C(N)=O)NC(=O)[C@H](CCC(N)=O)NC1=O` [Example 79, Ac-c(D-Cys-Lys-Trp-Ile-Gln-Cys)-NH2] (Ac-[dC]KWIQC-NH2; disulfide 1-6) gave a concentration for a half-maximal effect (EC50) of 60 nM. In turn, `CC[C@H](C)[C@@H]1NC(=O)[C@H](Cc2c[nH]c3ccccc23)NC(=O)[C@H](CCCCN)NC(=O)CCCCNC(=O)C[C@@H](C(N)=O)NC(=O)[C@H](CCC(N)=O)NC1=O` [Example 90, c(Apn-Lys-Trp-Ile-Gln-Asp)-NH2] ([Ava]KWIQD-NH2; lactam N-6) had an EC50 of 7 nM. The compound “[aminoPeg10-oxaglutaryl]-c(D-Cys-D-Gln-D-Ile-D-Trp-D-Lys-D-Gln-D-Lys-D-Pro-D-Asp-D-Leu-D-Cys)-NH2 [Example 187]” displayed an EC50 of 66 nM.

Source of the values: patent US20110038885A1, “CHEMOKINE ANALOGS” (priority 2007, published 2011).
